Measured values: paper PMC9317397, “Design and Synthesis of Hepatitis B Virus (HBV) Capsid Assembly Modulators and Evaluation of Their Activity in Mammalian Cell Model” (Pharmaceuticals, 2022)
Entries after “also recorded” stand apart in the source; their conditions may differ. Read-outs that look alike come from different tables or passages of the source.

What was measured:
[1] = target: HBV capsid assembly (full-length HBc protein, genotype D1) (Hepatitis B virus genotype D subtype ayw, UniProt P03146, A80I/T33N/V74G); test: HBV capsid assembly in SFV1/HBc-infected HBc-producing BHK-21 cells, native agarose gel anti-HBc immunoblot; type: cell-based; conditions: HBc-producing BHK-21 cells; for Effect on capsid production / mobility in initial test: 1–50 μM, 24 h (Figure 5); for Effect on Capsid Assembly / Effect on Capsid Assembly, Starting Concentration: 24 h, native agarose immunoblot; for Type of effect on HBV capsid assembly in dose-dependent experiments: 0.1–50 µM, 24 h (Figure 6)
Chain of HBV capsid assembly (full-length HBc protein, genotype D1) (P03146 whole entry A80I/T33N/V74G, looked up): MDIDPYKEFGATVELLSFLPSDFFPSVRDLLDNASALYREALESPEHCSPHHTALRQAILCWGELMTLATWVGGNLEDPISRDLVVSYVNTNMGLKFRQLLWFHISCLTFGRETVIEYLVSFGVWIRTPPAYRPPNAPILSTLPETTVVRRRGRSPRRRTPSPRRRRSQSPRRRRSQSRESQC

BHK-21 cells = test: Cytopathic effect (cell morphology, proliferation, trypan blue) in non-infected BHK-21 cells; type: cell-based, hamster; conditions: 24 h
Protocol: To define HAP compound non-toxic concentrations for initial studies, non-infected BHK-21 cells were incubated with compounds at four different concentrations for 24 h (25 μM, 50 μM, 100 μM, and 200 μM), and the cytopathic effects were evaluated by analysis of cell morphology and proliferation changes. […] 1c, 1j, 1k and 4a, and 7b. The reference comp.
The cytopathic effect of the compounds was estimated by phase contrast microscopy and standard trypan blue staining, and the cells were counted using an automatic cell counter (Invitrogen). BHK-21 and HepG2.2.15 cells were incubated for 24 h with the studied compounds at […] (25, 50, 100, 150 and 200 μM) and the cell morphology was controlled under microscope to evaluate cytopathic effects (Table 1, the highest non-toxic concentration).

[2] = MTT viability assay in BHK-21 cells; type: cell-based, hamster; conditions: hamster, 200 µM, read-out: Cell viability, percentage from untreated cells
Protocol: BHK-21 cells were incubated with different concentrations (6.125, 12.25, 25, 50, 100, and 200 µM) of the respective compounds and the cell viability was calculated as a percentage from untreated cells (100%) (Figure 7). In general, the results confirmed the morphological observation of relatively low cytotoxicity for tested compounds at concentrations below 100 µM.
Additionally, cell viability was determined by tetrazolium salt-based assay using the Vybrant MTT Cell Proliferation kit (Thermo Fisher Scientific, Waltham, MA, USA) or more sensitive CCK-8 kit (Abcam). First, the cell numbers and protocol were optimized for BHK-21 and HepG2.2.15 cells, as indicated in the MTT assay kit or CCK-8 reagent manufacturer’s protocol, and standard curves with OD values were created and evaluated.
In order to evaluate the toxicity of selected HAP compounds in the medium, 1.3 × 10^4 BHK-21 were seeded per well in 96-well plates and treated with the studied compounds for 24 h at concentrations 6.125; 12.25; 25; 50; 100; and 200 μM. Control cells without HAP compounds and MTT-free cell media were included in the experiments. The MTT test was performed according to the full protocol version (Thermo Fisher Scientific).

HBV [3] = conditions: HepG2.2.15 cells; for HBV DNA, % from control: six days, secreted virion DNA
HBV [4] = test: microbe, parasite or virus in culture; conditions: Hepatitis B virus, HepG2.2.15, 144 h, read-out: EC50 (50% reduction of HBV DNA), HepG2.2.15 cells, six days, 0–20 µM
HepG2.2.15 cells = test: MTT viability test in HepG2.2.15 cells (TC50); type: cell-based, human; conditions: 48 h, 0–200 µM
Protocol: In order to compare the cytotoxicity of compounds 1d and 1e in HBV producing HepG2.2.15 cells, the toxic concentrations (TC50 values) were estimated (Figure 9B,C).
In order to calculate the median of the toxic concentration (TC50) of the compounds, 1.33 × 10^5 HepG2.2.15 cells per well were seeded into a 24-well plate. After 24 h, the cells were treated with the test compounds at different concentrations (0, 50, 100, 150, 200 μM) and incubated for 48 h at 37 °C. All experiments were carried out in three identical repeats and the coefficient of variation and standard deviation were calculated from at least two independent experiments.
The percent inhibition at each compound concentration was calculated by normalization of the signals to the signals from non-treated HepG2.2.15 cells. […] Data points and error bars represent the means and standard deviations from at least two independent experiments, respectively. Comparisons between data groups were performed using the unpaired t test, with p values < 0.05 being considered statistically significant.

[5] = non-infected BHK-21 cells, no noticeable cytopathic effect

Row | SMILES | melting point [°C] | Effect on capsid production / mobility in initial test [1] | Effect on Capsid Assembly [1] | Effect on Capsid Assembly, Starting Concentration [1] [µM] | also measured
1 | COC(=O)C1=C(C[N+]2(C)CCCC2)NC(c2ncc(F)cc2F)=NC1c1ccc(F)cc1Cl (stereo not shown) [3b] | 167 to 168 | did not induce a significant effect on the capsid mobility | No effect |  | 
2 | CC1=C(C(=O)OCCOC(C)C)C(c2ccc(F)cc2Cl)N=C(c2ncc(F)cc2F)N1 (stereo not shown) (hydrate or solvate) [1e] | 156 to 157 |  |  |  | 
3 | CCOCCOC(=O)C1=C(C)NC(c2ncc(F)cc2F)=NC1c1ccc(F)cc1Cl (stereo not shown) (hydrate or solvate) [1d] | 143 to 144 |  |  |  | 
4 | COC(=O)C1=C(C[N+]2(C)CCOCC2)NC(c2ncc(F)cc2F)=NC1c1ccc(F)cc1Cl (stereo not shown) [3c] | 181 to 182 | did not induce a significant effect on the capsid mobility | No effect |  | The Highest Non-Toxic Concentration (BHK-21 cells; [5]): 150 µM
5 | COC(=O)C1=C(C[n+]2ccccc2)NC(c2ncc(F)cc2F)=NC1c1ccc(F)cc1Cl (stereo not shown) [3a] | 173 to 174 | did not induce a significant effect on the capsid mobility | No effect |  | 
6 | CCOC(=O)C1=C(C)NC(c2nccs2)=NC1c1ccccc1 (stereo not shown) (hydrate or solvate) [1k] | 129 to 130 |  |  |  | 
7 | O=C1OCC2=C1C(c1ccc(F)cc1Cl)N=C(c1ncc(F)cc1F)N2 (stereo not shown) [compound 5] |  | misfolding of the HBV capsid | HBc accumulation, aggregates/or incorrect capsid structures | 50 | Type of effect on HBV capsid assembly in dose-dependent experiments [1]: dose-dependent HBc products accumulation
8 | COc1ccccc1NC(=O)C1=C(C)NC(c2ncc(F)cc2F)=NC1c1ccc(F)cc1Cl (stereo not shown) (hydrate or solvate) [1i] | 149 to 150 |  |  |  | 
9 | CC1=C(C(=O)Nc2ccccn2)C(c2ccc(F)cc2Cl)N=C(c2ncc(F)cc2F)N1 (stereo not shown) (hydrate or solvate) [1h] | 152 to 153 |  |  |  | 
10 | CC1=C(C(=O)Nc2ccccn2)C(c2ccc(F)cc2Cl)N=C(c2ncc(F)cc2F)N1 (stereo not shown) [1h] |  |  | Dose dependent capsid signal decrease | 20 | viability at 24 h, 200 µM [2]: > 90%; The Highest Non-Toxic Concentration (BHK-21 cells; [5]): 150 µM; Type of effect on HBV capsid assembly in dose-dependent experiments [1]: dose-dependent HBc signal decrease
11 | CC1=C(C(=O)O)C(c2ccc(F)cc2Cl)N=C(c2ncc(F)cc2F)N1 (stereo not shown) [1b] |  | inhibitory effect | Dose dependent capsid signal decrease | 10 | HBV DNA, % from control (HBV [3]; 10 µM): 74.3%; viability at 24 h, 200 µM [2]: > 90%; The Highest Non-Toxic Concentration (BHK-21 cells; [5]): 50 µM; Type of effect on HBV capsid assembly in dose-dependent experiments [1]: dose-dependent HBc signal decrease
12 | CCOC(=O)C1=C(C)NC(c2nccs2)=CC1c1ccc(F)cc1Cl (stereo not shown) [compound 6] |  | did not induce a significant effect on the capsid mobility | No effect |  | 
13 | COc1ccccc1NC(=O)C1=C(C)NC(c2ncc(F)cc2F)=NC1c1ccc(F)cc1Cl (stereo not shown) [1i] |  |  | Dose dependent capsid signal decrease | 20 | viability at 24 h, 200 µM [2]: 71%; The Highest Non-Toxic Concentration (BHK-21 cells; [5]): 50 µM; Type of effect on HBV capsid assembly in dose-dependent experiments [1]: dose-dependent HBc signal decrease
14 | CCCCCC[n+]1ccc(C)cc1.Cc1ccc(S(=O)(=O)[O-])cc1 [7a] |  | did not induce a significant effect on the capsid mobility | No effect |  | The Highest Non-Toxic Concentration (BHK-21 cells; [5]): 50 µM
15 | COC(=O)C1=C(C[N+]23CCC(CC2)C(O)C3)NC(c2ncc(F)cc2F)=NC1c1ccc(F)cc1Cl (stereo not shown) [3d] |  | inhibitory effect | Capsid signal decrease, possible changes in NS packaging |  | The Highest Non-Toxic Concentration (BHK-21 cells; hamster): 100 µM
16 | CCOC(=O)C1=C(C)NC(c2nccs2)=NC1c1ccc(F)cc1 (stereo not shown) [1j] |  | misfolding of the HBV capsid | HBc accumulation, aggregates/or incorrect capsid structures | 5 | Type of effect on HBV capsid assembly in dose-dependent experiments [1]: dose-dependent HBc products accumulation
17 | CCCOCCOC(=O)C1=C(C)NC(c2ncc(F)cc2F)=NC1c1ccc(F)cc1Cl (stereo not shown) (hydrate or solvate) [1f] | 149 to 150 |  |  |  | 
18 | CCCOCCOC(=O)C1=C(C)NC(c2ncc(F)cc2F)=NC1c1ccccc1OC(F)F (stereo not shown) (hydrate or solvate) [1g] | 164 to 165 |  |  |  | 
19 | CCCCCCCCCCCCCCCC[n+]1ccc(C)cc1.Cc1ccc(S(=O)(=O)[O-])cc1 [7b] |  | did not induce a significant effect on the capsid mobility | No effect |  | 
20 | CCOC(=O)c1c(C)nc(-c2nccs2)nc1-c1ccc(F)cc1 [4b] |  | did not induce a significant effect on the capsid mobility | No effect |  | 
21 | CCCOCCOC(=O)C1=C(C)NC(c2ncc(F)cc2F)=NC1c1ccccc1OC(F)F (stereo not shown) [1g] |  | did not induce a significant effect on the capsid mobility; also recorded: some increase in capsid band signal | Insignificant capsid amount increases |  | The Highest Non-Toxic Concentration (BHK-21 cells; [5]): 50 µM
22 | CCOC(=O)C1=C(C)NC(c2nccs2)=NC1c1ccccc1 (stereo not shown) [1k] |  | misfolding of the HBV capsid | Dose dependent HBc accumulation, aggregates/or incorrect capsid structures | 1 | 
23 | CCOC(=O)c1c(C)nc(-c2nccs2)nc1-c1ccccc1 [4a] | 93 to 94 | did not induce a significant effect on the capsid mobility | No effect |  | 
24 | CC1=C(C(=O)OCCOC(C)C)C(c2ccc(F)cc2Cl)N=C(c2ncc(F)cc2F)N1 (stereo not shown) [1e] |  | misfolding of the HBV capsid | Dose dependent capsid signal decrease | 10 | SI (TC50/EC50) (HBV [3]): 11; HBV DNA, % from control (HBV [3]; 20 µM): 6.3%; Decrease in the amount of HBV virion release compared with control (HBV [3]; Figure 8): ≤ 93.5%; EC50 (HBV [4]): 9.16 µM; viability at 24 h, 200 µM [2]: > 90%; The Highest Non-Toxic Concentration (BHK-21 cells; [5]): 100 µM; TC50 (HepG2.2.15 cells): 98 µM; Effect on capsids at lower concentrations ([1]; 5 μM and 10 μM): capsid stabilization and accumulation; Effect on capsids at higher concentrations ([1]; 20 μM and 50 μM): capsids were almost non-detectable; Type of effect on HBV capsid assembly in dose-dependent experiments [1]: dose-dependent HBc signal decrease
25 | CCOC(=O)C1=C(C)NC(c2nccs2)=NC1c1ccc(F)cc1 (stereo not shown) (hydrate or solvate) [1j] | 114 to 115 |  |  |  | 
26 | CCOC(=O)C1=C(C)NC(c2ncc(F)cc2F)=NC1c1ccc(F)cc1 (stereo not shown) (hydrate or solvate) [1c] | 126 to 127 |  |  |  | 
27 | CCOC(=O)C1=C(C)NC(c2ncc(F)cc2F)=NC1c1ccc(F)cc1 (stereo not shown) [1c] |  | inhibitory effect | Capsid signal decrease | 5 | 
28 | CCCOCCOC(=O)C1=C(C)NC(c2ncc(F)cc2F)=NC1c1ccc(F)cc1Cl (stereo not shown) [1f] |  | misfolding of the HBV capsid | HBc accumulation, aggregates/or incorrect capsid structures | 10 | HBV DNA, % from control (HBV [3]; 20 µM): 52.5%; viability at 24 h, 200 µM [2]: > 90%; The Highest Non-Toxic Concentration (BHK-21 cells; [5]): 100 µM; Type of effect on HBV capsid assembly in dose-dependent experiments [1]: dose-dependent HBc products accumulation
